According to patent US20240327428A1, “Inhibitors of human immunodeficiency virus replication, method of making and method of using thereof” (ASCLETIS BIOSCIENCE CO., LTD., priority 2023, published 2024):
Read-outs that look alike come from different tables or passages of the source.

Tests used:
Assay type in all cases: cell-based
HIV-1IIIB = experiment: Inhibition of HIV-1IIIB infection in MT-4 cells (XTT staining); details: HIV-1IIIB in MT-4 cells; for EC50: 6 days incubation, XTT, read-out: EC50 (50% inhibition of virus replication)
Method: (§1) The compounds were evaluated for inhibition of HIV-1IIIB infection and cellular toxicity in MT-4 cells.
(§2) The MT-4 cells and […] used in the HIV-1 inhibition assays were obtained from the AIDS Research and Reference Program (Rockville, MD) and propagated as recommended by the supplier.
(§3) Fifty microliters (50 μL) of MT-4 cells at a density of 1.0×10^4 cells/well in 10% complete RPMI-1640 (10% FBS supplemented with 1% L-glutamine and 1% Penicillin/Streptomycin) media were plated in a 96-well flat bottom plate. One-hundred microliters (100 μL) of each compound at 12 concentrations were added in triplicate followed by 50 μL of HIV-1IIIB at a pre-determined titer. The cultures were incubated for 6 days at 37° C./5% CO2. Following the incubation, the cells were stained with XTT for evaluation of compound efficacy and cellular toxicity, as described below.
(§4) Efficacy and toxicity values for the test materials were derived by measuring the reduction of the tetrazolium dye XTT (2,3-bis(2-methoxy-4-nitro-5-sulfophenyl)-5-[(phenylamino)carbonyl]-2H-tetrazolium hydroxide). XTT in metabolically active cells is metabolized by the mitochondrial enzyme NADPH oxidase to a soluble formazan product. XTT solution was prepared daily as a stock of 1 mg/mL in RPMI-1640 without additives. Phenazine methosulfate (PMS) solution was prepared at 0.15 mg/mL in DPBS and stored in the dark at −20° C. XTT/PMS stock was prepared immediately before use by adding 40 μL of PMS per mL of XTT solution. Fifty μL (50 μL) of XTT/PMS was added to each well of the plate and the plate incubated for 4 hours at 37° C. The 4-hour incubation has been empirically determined to be within the linear response range for XTT dye reduction with the indicated numbers of cells for each assay. The plates were sealed and inverted several times to mix the soluble formazan product and the plate was read at 450 nm (650 nm reference wavelength) with a Molecular Devices SpectraMax Plus 384 96 well plate format spectrophotometer.
(§5) Microsoft Excel 2010 in combination with XLfit4 was used to analyze and graph the data. EC50 (50% inhibition of virus replication), TC50 (50% reduction in cell viability) and a therapeutic index (TC50/EC50) are provided. Raw data for both antiviral activity and toxicity with a graphic representation of the data are provided in a printout summarizing the compound activity.

MT-4 cells = experiment: Cellular toxicity in MT-4 cells (XTT staining); details: 6 days incubation, read-out: TC50 (50% reduction in cell viability)
Method: as §1, §2, §3, §4, §5

[1] = Cellular toxicity in MT-4 cells (XTT staining); details: human, 6 days incubation, read-out: TC50 (50% reduction in cell viability)
Method: as §1, §2, §3, §4, §5

[2] = Human immunodeficiency virus 1, MT4, 144 h

Structure (SMILES) | EC50 (HIV-1IIIB) [nM] | CC50 (MT-4 cells) [nM] | Therapeutic Index (TC50/EC50) (HIV-1IIIB) | EC50 (HIV-1IIIB; [2]) [nM] | CC50 at 6 days [1] [nM]
Cn1nc(NS(C)(=O)=O)c2c(Cl)ccc(-n3c([C@H](Cc4cc(F)cc(F)c4)NC(=O)Cn4nc(C(F)(F)F)c5c4C(F)(F)[C@@H]4C[C@H]54)nc4onc(-c5ccccc5)c4c3=O)c21 (atropisomer, axis not shown) [Compound 38] | > 100 | > 100 | – | – | –
Cn1nc(NS(C)(=O)=O)c2c(Cl)ccc(-n3c([C@H](Cc4cc(F)cc(F)c4)NC(=O)Cn4nc(C(F)(F)F)c5c4C(F)(F)[C@@H]4C[C@H]54)nc4nc(N5CCOCC5)sc4c3=O)c21 [Compound 51] | – | – | >518.1 | 0.193 | > 100
CN(CCC(F)(F)F)c1nc2nc([C@H](Cc3cc(F)cc(F)c3)NC(=O)Cn3nc(C(F)(F)F)c4c3C(F)(F)[C@@H]3C[C@H]43)n(-c3ccc(Cl)c4c(NS(C)(=O)=O)nn(C)c34)c(=O)c2s1 [Compound 50] | – | – | >1136.4 | 0.088 | > 100
COCCNc1nc2nc([C@H](Cc3cc(F)cc(F)c3)NC(=O)Cn3nc(C(F)(F)F)c4c3C(F)(F)[C@@H]3C[C@H]43)n(-c3ccc(Cl)c4c(NS(C)(=O)=O)nn(C)c34)c(=O)c2s1 [Compound 46] | – | – | >510.2 | 0.196 | > 100
Cn1nc(NS(C)(=O)=O)c2c(Cl)ccc(-n3c([C@H](Cc4cc(F)cc(F)c4)NC(=O)Cn4nc(C(F)(F)F)c5c4C(F)(F)[C@@H]4C[C@H]54)nc4cc(N5CCCC5)sc4c3=O)c21 [Compound 39] | – | – | >5.4 | 18.6 | > 100
Cn1nc(NS(C)(=O)=O)c2c(Cl)ccc(-n3c([C@H](Cc4cc(F)cc(F)c4)NC(=O)Cn4nc(C(F)(F)F)c5c4C(F)(F)[C@@H]4C[C@H]54)nc4nc(NCCO)sc4c3=O)c21 [Compound 47] | – | – | >83.3 | 1.2 | > 100
Cn1nc(NS(C)(=O)=O)c2c(Cl)ccc(-n3c([C@H](Cc4cc(F)cc(F)c4)NC(=O)Cn4nc(C(F)(F)F)c5c4C(F)(F)[C@@H]4C[C@H]54)nc4sccc4c3=O)c21 (atropisomer, axis not shown) [Compound 32] | > 100 | – | – | – | > 100
Cn1nc(NS(C)(=O)=O)c2c(Cl)ccc(-n3c([C@H](Cc4cc(F)cc(F)c4)NC(=O)Cn4nc(C(F)(F)F)c5c4C(F)(F)[C@@H]4C[C@H]54)nc4nc(N5CC6(COC6)C5)sc4c3=O)c21 (atropisomer, axis not shown) [Compound 41] | – | – | >193.4 | 0.517 | > 100
Cn1nc(NS(C)(=O)=O)c2c(Cl)ccc(-n3c([C@H](Cc4cc(F)cc(F)c4)NC(=O)Cn4nc(C(F)(F)F)c5c4C(F)(F)[C@@H]4C[C@H]54)nc4sc(CC(F)(F)F)cc4c3=O)c21 [Compound 43] | – | – | >31.7 | 3.15 | > 100
CC1(C)CN(c2nc3nc([C@H](Cc4cc(F)cc(F)c4)NC(=O)Cn4nc(C(F)(F)F)c5c4C(F)(F)[C@@H]4C[C@H]54)n(-c4ccc(Cl)c5c(NS(C)(=O)=O)nn(CC(F)(F)F)c45)c(=O)c3s2)CCO1 (racemic) [Compound 52] | – | – | >653.6 | 0.153 | > 100
Cn1nc(NS(C)(=O)=O)c2c(Cl)ccc(-n3c([C@H](Cc4cc(F)cc(F)c4)NC(=O)Cn4nc(C(F)(F)F)c5c4C(F)(F)[C@@H]4C[C@H]54)nc4nc(N5CCOC(C)(C)C5)sc4c3=O)c21 (atropisomer, axis not shown) [Compound 40] | – | – | >492.6 | 0.203 | > 100
Cn1nc(NS(C)(=O)=O)c2c(Cl)ccc(-n3c([C@H](Cc4cc(F)cc(F)c4)NC(=O)Cn4nc(C(F)(F)F)c5c4C(F)(F)[C@@H]4C[C@H]54)nc4nc(NCCC(F)(F)F)sc4c3=O)c21 [Compound 49] | – | – | >458.7 | 0.218 | > 100
Cn1nc(NS(C)(=O)=O)c2c(Cl)ccc(-n3c([C@H](Cc4cc(F)cc(F)c4)NC(=O)Cn4nc(C(F)(F)F)c5c4C(F)(F)[C@@H]4C[C@H]54)nc4sc(-c5ccc(F)cc5)cc4c3=O)c21 (atropisomer, axis not shown) [Compound 42] | – | – | >26.4 | 3.79 | > 100
Cn1nc(NS(C)(=O)=O)c2c(Cl)ccc(-n3c([C@H](Cc4cc(F)cc(F)c4)NC(=O)Cn4nc(C(F)(F)F)c5c4C(F)(F)[C@@H]4C[C@H]54)nc4ncsc4c3=O)c21 (atropisomer, axis not shown) [Compound 35] | > 100 | – | – | – | > 100
Cn1nc(NS(C)(=O)=O)c2c(Cl)ccc(-n3c([C@H](Cc4cc(F)cc(F)c4)NC(=O)Cn4nc(C(F)(F)F)c5c4C(F)(F)[C@@H]4C[C@H]54)nc4nc(OCCC(F)(F)F)sc4c3=O)c21 (atropisomer, axis not shown) [Compound 53] | – | – | >980.4 | 0.102 | > 100
Cn1nc(NS(C)(=O)=O)c2c(Cl)ccc(-n3c([C@H](Cc4cc(F)cc(F)c4)NC(=O)Cn4nc(C(F)(F)F)c5c4C(F)(F)[C@@H]4C[C@H]54)nc4onc(-c5ccccc5)c4c3=O)c21 (atropisomer, axis not shown) [Compound 37] | 11.1 | – | >9.0 | – | > 100
CS(=O)(=O)Nc1nn(CC(F)(F)F)c2c(-n3c([C@H](Cc4cc(F)cc(F)c4)NC(=O)Cn4nc(C(F)(F)F)c5c4C(F)(F)[C@@H]4C[C@H]54)nc4sccc4c3=O)ccc(Cl)c12 [Compound 1] | – | – | >312.5 | 0.32 | > 100
CN(C)c1nc2nc([C@H](Cc3cc(F)cc(F)c3)NC(=O)Cn3nc(C(F)(F)F)c4c3C(F)(F)[C@@H]3C[C@H]43)n(-c3ccc(Cl)c4c(NS(C)(=O)=O)nn(C)c34)c(=O)c2s1 (atropisomer, axis not shown) [Compound 48] | – | – | >432.9 | 0.231 | > 100
Cc1nsc2nc([C@H](Cc3cc(F)cc(F)c3)NC(=O)Cn3nc(C(F)(F)F)c4c3C(F)(F)[C@@H]3C[C@H]43)n(-c3ccc(Cl)c4c(NS(C)(=O)=O)nn(C)c34)c(=O)c12 (atropisomer, axis not shown) [Compound 44] | 34.1 | – | >2.9 | – | > 100
CS(=O)(=O)Nc1nn(CC(F)(F)F)c2c(-n3c([C@H](Cc4cc(F)cc(F)c4)NC(=O)Cn4nc(C(F)(F)F)c5c4C(F)(F)[C@@H]4C[C@H]54)nc4ncsc4c3=O)ccc(Cl)c12 [Compound 3] | – | – | >625.0 | 0.16 | > 100
Cn1nc(NS(C)(=O)=O)c2c(Cl)ccc(-n3c([C@H](Cc4cc(F)cc(F)c4)NC(=O)Cn4nc(C(F)(F)F)c5c4C(F)(F)[C@@H]4C[C@H]54)nc4c(c3=O)CCCN4)c21 (atropisomer, axis not shown) [Compound 34] | – | – | >42.6 | 2.35 | > 100
Cn1nc(NS(C)(=O)=O)c2c(Cl)ccc(-n3c([C@H](Cc4cc(F)cc(F)c4)NC(=O)Cn4nc(C(F)(F)F)c5c4C(F)(F)C4CC54)nc4nc(S(C)(=O)=O)sc4c3=O)c21 (stereo partly drawn) [Compound 29] | 34.9 | – | >2.9 | – | > 100
